# Data: paper PMC4661905, “A Mechanism of O-Demethylation of Aristolochic Acid I by Cytochromes P450 and Their Contributions to This Reaction in Human and Rat Livers: Experimental and Theoretical Approaches” (International Journal of Molecular Sciences, 2015)
# Columns and labels:
# [1] = test system: CYP enzymes of liver microsomes that oxidise (demethylate) AAI to AAIa; experiment: Effect of CYP inhibitors on AAI oxidation to AAIa by rat liver microsomes; format: in vitro ADME; conditions: male, Wistar, pH 7.4, probe AAI (10 μM), inhibitor 10 μM equimolar to AAI (10 μM), 0.1 nmol CYP, mean ± SD, n = 3, NI = no inhibition, read-out: AAIa Formation (% of Control without Inhibitor) Rat Microsomes
# Method: Microsomal fractions were prepared from livers of ten male Wistar rats (AnLab, Prague, Czech Republic) by differential centrifugation as described previously.
# (§1) Incubation mixtures (250 μL) contained 100 mM potassium phosphate buffer (pH 7.4), 1 mM NADPH, 1 mg human or rat liver microsomal protein and 10 μM AAI [30, 43]. […] Control incubations were performed (i) without microsomal proteins; (ii) without NADPH; or (iii) without AAI. […] For Supersomes™, incubation mixtures (final volume 250 μL) consisted of 100 mM potassium phosphate buffer (pH 7.4), 1 mM NADP^+, 10 mM MgCl2, 10 mM D-glucose 6-phosphate, 1 U/mL D-glucose 6-phosphate dehydrogenase (NADPH-generating system), 50 nM CYPs in Supersomes™, and 10 μM AAI. Supersomes™ with POR alone were utilized as controls. AAI and its metabolites (i.e., AAIa) were extracted from incubation mixtures with 2 × 1 mL of ethyl acetate and evaporated to dryness; residues were dissolved in 30 μL of methanol and analyzed with reverse-phase HPLC as described.
# (§2) Compounds were dissolved in 2.5 μL methanol (except for DDTC that was dissolved in distilled water) to yield final concentrations of 10 μM in the incubation mixtures. Inhibitors (10 μM) were incubated at 37 °C for 10 min with the NADPH-generating system prior to addition of 10 μM AAI, and then incubated for an additional 20 min at 37 °C. AAIa formation was analyzed by HPLC as described above.
# [2] = test system: CYP enzymes of liver microsomes that oxidise (demethylate) AAI to AAIa; experiment: Effect of CYP inhibitors on AAI oxidation to AAIa by human liver microsomes; format: in vitro ADME; conditions: pH 7.4, probe AAI (10 μM), inhibitor 10 μM equimolar to AAI (10 μM), 0.1 nmol CYP, mean ± SD, n = 3, NI = no inhibition, read-out: AAIa Formation (% of Control without Inhibitor) Human Microsomes
# Method: as §1, §2
# human CYP1A2 = conditions: CYP1A2, with vs without cytochrome b5; cited from earlier work
# CYP3A4 = experiment: Contribution of CYP to AAI oxidation in human liver; format: in vitro ADME; conditions: from Supersomal velocities with cytochrome b5 and CYP expression levels
# Method: (§3) In order to calculate the contributions of individual CYPs to AAI oxidation in human and rat livers, we utilized the velocities of AAI oxidation to AAIa by the Supersomal CYP enzyme systems containing cytochrome b5 (Figure 2) in the combination with the data on the expression levels of CYPs in human and rat livers. The contributions of these enzymes were calculated by relative activity factor because the activities of CYP in Supersomes™ should be considered in addition to the relative contents of CYPs in the livers. Therefore, the contributions of each CYP that oxidizes AAI in livers were calculated by dividing of the relative activity of each of such CYPs oxidizing AAI [r.a.cypi] (rate of AAI oxidation multiplied by amounts of this CYP in tissues examined), by the total relative activities (∑[r.a.cypi]) of all CYPs oxidizing this substrate. Of human liver CYPs, CYP3A4 is the major enzyme present in this human organ (~30% of the CYP hepatic complement), followed by CYP2C9 and 1A2 (~15% and ~13%, respectively), while CYP2C19, 2E1 2A6, 2D6, 2C8, and 3A5 are present in human liver in levels of the range of ~8.5%–~2.5% of the liver CYPs (see [58] for an overview). CYPs of the 2C subfamily (CYP2C6, 2C11, 2C12, and 2C13) are the major enzymes expressed in rat livers accounting of ~55% of the CYP complement. Of the CYP2C complement, ~50% and ~20% correspond to CYP2C11 and 2C6, respectively. Of the other CYPs, CYP2E1, 3A, 2D, 2A, 2B, and 1A enzymes are also present in rat livers, expressed in levels of ~15%, ~10%, ~7%, ~6%, ~5%, and ~2%, respectively.
# CYP2C8 = experiment: as above; format: in vitro ADME
# Method: as §3
# CYP3A5 = experiment: as above; format: in vitro ADME
# Method: as §3
# CYP2C19 = experiment: as above; format: in vitro ADME
# Method: as §3
# CYP1A2 = experiment: as above; format: in vitro ADME; conditions: from Supersomal velocities with cytochrome b5 and CYP expression levels
# Method: as §3
# CYP1B1 = experiment: as above; format: in vitro ADME
# Method: as §3
# CYP2B6 = experiment: as above; format: in vitro ADME
# Method: as §3
# CYP2C9 [3] = experiment: as above; format: in vitro ADME; conditions: from Supersomal velocities with cytochrome b5 and CYP expression levels
# Method: as §3
# CYP1A1 [4] = experiment: as above; format: in vitro ADME; conditions: from Supersomal velocities with cytochrome b5 and CYP expression levels
# Method: as §3
# CYP2E1 = experiment: as above; format: in vitro ADME
# Method: as §3
# CYP2D6 = experiment: as above; format: in vitro ADME
# Method: as §3
# CYP2C9 [5] = conditions: CYP2C9, with vs without cytochrome b5; cited from earlier work
# CYP1A1 [6] = experiment: Contribution of CYP to AAI oxidation in rat liver; format: in vitro ADME
# Method: as §3
# CYP2C11 = experiment: Contribution of CYP to AAI oxidation in rat liver; format: in vitro ADME
# Method: as §3
# CYP2C6 = experiment: Contribution of CYP to AAI oxidation in rat liver; format: in vitro ADME
# Method: as §3
# CYP1A subfamily = experiment: Contribution of CYP to AAI oxidation in rat liver; format: in vitro ADME
# Method: as §3
# CYP2C subfamily = experiment: Contribution of CYP to AAI oxidation in rat liver; format: in vitro ADME
# Method: as §3
smiles,measurement,setting,value
"O=c1cc(-c2ccccc2)oc2c1ccc1ccccc12 [α-Napththoflavone, α-Naphthoflavone]","activity at 20 min, 10 μM",[1],85 ± 5%
same,"activity at 20 min, 10 μM",[2],89 ± 5%
"C=C[C@H]1C[N@@]2CC[C@H]1C[C@@H]2[C@@H](O)c1ccnc2ccc(OC)cc12 [Quinidine, quinidine]","activity at 20 min, 10 μM",[1],> 100%
same,"activity at 20 min, 10 μM",[2],> 100%
"Cc1nc2c([nH]1)c(=O)n(C)c(=O)n2Cc1ccco1 [Furafylline, furafylline]","activity at 20 min, 10 μM",[1],84 ± 5%
same,"activity at 20 min, 10 μM",[2],75 ± 4%
"CCN(CC)C(=S)S [DDTC, diethyldithiocarbamate]","activity at 20 min, 10 μM",[1],52 ± 4%
same,"activity at 20 min, 10 μM",[2],96 ± 5%
"Nc1ccc(S(=O)(=O)Nc2ccnn2-c2ccccc2)cc1 [Sulfaphenazole, sulfaphenazole]","activity at 20 min, 10 μM",[1],68 ± 3%
same,"activity at 20 min, 10 μM",[2],> 100%
"COc1cccc2c1cc([N+](=O)[O-])c1c(C(=O)O)cc3c(c12)OCO3 [AAI, aristolochic acid I]",Increase in AAIa formation by cytochrome b5,human CYP1A2,not significant
same,Contribution to AAI oxidation to AAIa,CYP3A4,~ 10.5%
same,Contribution to AAI oxidation to AAIa,CYP2C8,~ 1.0%
same,Contribution to AAI oxidation to AAIa,CYP3A5,negligible
same,Contribution to AAI oxidation to AAIa,CYP2C19,~ 0.6%
same,Contribution to AAI oxidation to AAIa,CYP1A2,~ 47.5%
same,Contribution to AAI oxidation to AAIa,CYP1B1,negligible
same,Contribution to AAI oxidation to AAIa,CYP2B6,negligible
same,Contribution to AAI oxidation to AAIa,CYP2C9 [3],~ 15.8%
same,Contribution to AAI oxidation to AAIa,CYP1A1 [4],~ 8.3%
same,Contribution to AAI oxidation to AAIa,CYP2E1,~ 1.1%
same,Contribution to AAI oxidation to AAIa,CYP2D6,negligible
same,Increase in AAIa formation by cytochrome b5,CYP2C9 [5],not significant
same,Contribution to AAI oxidation to AAIa,CYP1A1 [6],~ 1.7%
same,Contribution to AAI oxidation to AAIa,CYP2C11,~ 42%
same,Contribution to AAI oxidation to AAIa,CYP2C6,~ 17%
same,Contribution to AAI oxidation to AAIa,CYP1A subfamily,~ 17%
same,Contribution to AAI oxidation to AAIa,CYP2C subfamily,~ 83%
